From PMC7481482, “Development of Anthraquinone Derivatives as Ectonucleoside Triphosphate Diphosphohydrolase (NTPDase) Inhibitors With Selectivity for NTPDase2 and NTPDase3” (Frontiers in Pharmacology, 2020)

Experiments:
NTPDase1 = molecular target: NTPDase1; set-up: method as in Lecka et al., 2013; settings: ref Lecka et al., 2013; cited from earlier work
human NTPDase2 [1] = molecular target: T1, human NTPDase2 (Homo sapiens, UniProt Q9Y5L3); settings: ref Lévesque et al., 2007; cited from earlier work
T1 construct: expressed in transfected cells; host or cells: COS-7 cells (membrane preparation)
T1 sequence (Q9Y5L3 1-495): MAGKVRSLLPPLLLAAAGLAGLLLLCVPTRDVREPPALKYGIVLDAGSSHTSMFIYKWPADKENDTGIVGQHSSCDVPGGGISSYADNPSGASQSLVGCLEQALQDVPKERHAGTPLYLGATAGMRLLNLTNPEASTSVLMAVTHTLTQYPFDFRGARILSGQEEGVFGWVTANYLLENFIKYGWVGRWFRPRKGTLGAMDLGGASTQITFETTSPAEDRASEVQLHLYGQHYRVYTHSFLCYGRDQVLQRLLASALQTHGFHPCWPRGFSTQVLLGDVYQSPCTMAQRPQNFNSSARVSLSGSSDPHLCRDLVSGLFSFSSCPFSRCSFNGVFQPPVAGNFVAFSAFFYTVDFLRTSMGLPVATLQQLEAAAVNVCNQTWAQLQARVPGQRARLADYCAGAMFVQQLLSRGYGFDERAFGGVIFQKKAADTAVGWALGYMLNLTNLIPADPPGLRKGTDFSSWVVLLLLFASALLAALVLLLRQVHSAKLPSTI

human NTPDase8 [2] = molecular target: T2, human NTPDase8 (Homo sapiens, UniProt Q5MY95); set-up: method as in Lévesque et al., 2007; settings: ref Lévesque et al., 2007; cited from earlier work
T2 construct: expressed in transfected cells; host or cells: COS-7 cells (membrane preparation)
T2 sequence (Q5MY95 1-495): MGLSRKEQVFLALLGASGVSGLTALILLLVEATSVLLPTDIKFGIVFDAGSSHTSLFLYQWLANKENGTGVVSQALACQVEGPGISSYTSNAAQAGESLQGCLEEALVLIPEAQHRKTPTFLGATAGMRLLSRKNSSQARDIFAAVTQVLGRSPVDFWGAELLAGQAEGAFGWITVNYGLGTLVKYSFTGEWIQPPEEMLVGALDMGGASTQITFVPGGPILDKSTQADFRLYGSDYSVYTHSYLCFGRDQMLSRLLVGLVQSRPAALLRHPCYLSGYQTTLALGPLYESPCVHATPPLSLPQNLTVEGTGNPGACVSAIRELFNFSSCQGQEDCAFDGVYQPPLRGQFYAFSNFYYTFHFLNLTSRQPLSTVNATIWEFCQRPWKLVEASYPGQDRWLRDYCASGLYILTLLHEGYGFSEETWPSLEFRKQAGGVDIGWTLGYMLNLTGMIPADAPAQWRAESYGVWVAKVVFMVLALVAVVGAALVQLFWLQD

human NTPDase1 = molecular target: T3, human NTPDase1 (Homo sapiens, UniProt P49961); assay: Malachite green assay, human NTPDase1; format: biochemical; settings: 2 μM compound; 50 µM ATP; COS-7 membrane preparation; read-out: % inhibition at 2 μM concentration, NTPDase1
T3 construct: expressed in transfected cells; host or cells: COS-7 cells (membrane preparation)
T3 sequence (P49961 1-510): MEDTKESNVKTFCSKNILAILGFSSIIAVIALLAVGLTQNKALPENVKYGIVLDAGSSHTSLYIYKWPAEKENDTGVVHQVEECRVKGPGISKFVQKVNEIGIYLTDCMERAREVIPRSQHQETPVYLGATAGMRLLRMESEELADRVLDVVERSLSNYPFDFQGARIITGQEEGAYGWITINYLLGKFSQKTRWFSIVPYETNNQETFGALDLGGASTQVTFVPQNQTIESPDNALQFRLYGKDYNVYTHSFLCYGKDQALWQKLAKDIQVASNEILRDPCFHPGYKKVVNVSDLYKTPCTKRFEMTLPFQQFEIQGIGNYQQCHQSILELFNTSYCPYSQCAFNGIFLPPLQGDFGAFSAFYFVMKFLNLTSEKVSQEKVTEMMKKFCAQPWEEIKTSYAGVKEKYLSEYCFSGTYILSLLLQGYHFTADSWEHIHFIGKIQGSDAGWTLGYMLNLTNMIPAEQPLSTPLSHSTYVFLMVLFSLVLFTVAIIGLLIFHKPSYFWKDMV
In short: (§1)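 COS-7 membranes expressing each NTPDase were preincubated with compound for 5 min at 37 °C, pH 7.4 HEPES buffer with 2 mM CaCl2/1 mM MgCl2. ATP was 50 µM for NTPDase1 and 100 µM for -2, -3, -8; reaction ran 15 min at 37 °C. Released phosphate read by malachite green at 600 nm; screen at 2 µM, IC50 over 0.03–30 µM in 2% DMSO.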

human NTPDase2 [3] = molecular target: T1, human NTPDase2; assay: Malachite green assay, human NTPDase2; format: biochemical; settings: for inhibition at 2 µM: 2 μM compound, read-out: % inhibition at 2 μM concentration, NTPDase2; for inhibition at 2 µM / IC50: 100 µM ATP, COS-7 membrane preparation; for IC50: read-out: IC50 ± SEM, NTPDase2
In short: as §1

human NTPDase3 = molecular target: T4, human NTPDase3 (Homo sapiens, UniProt O75355); assay: Malachite green assay, human NTPDase3; format: biochemical; settings: 2 μM compound; 100 µM ATP; COS-7 membrane preparation; read-out: % inhibition at 2 μM concentration, NTPDase3
T4 construct: expressed in transfected cells; host or cells: COS-7 cells (membrane preparation)
T4 sequence (O75355 1-529): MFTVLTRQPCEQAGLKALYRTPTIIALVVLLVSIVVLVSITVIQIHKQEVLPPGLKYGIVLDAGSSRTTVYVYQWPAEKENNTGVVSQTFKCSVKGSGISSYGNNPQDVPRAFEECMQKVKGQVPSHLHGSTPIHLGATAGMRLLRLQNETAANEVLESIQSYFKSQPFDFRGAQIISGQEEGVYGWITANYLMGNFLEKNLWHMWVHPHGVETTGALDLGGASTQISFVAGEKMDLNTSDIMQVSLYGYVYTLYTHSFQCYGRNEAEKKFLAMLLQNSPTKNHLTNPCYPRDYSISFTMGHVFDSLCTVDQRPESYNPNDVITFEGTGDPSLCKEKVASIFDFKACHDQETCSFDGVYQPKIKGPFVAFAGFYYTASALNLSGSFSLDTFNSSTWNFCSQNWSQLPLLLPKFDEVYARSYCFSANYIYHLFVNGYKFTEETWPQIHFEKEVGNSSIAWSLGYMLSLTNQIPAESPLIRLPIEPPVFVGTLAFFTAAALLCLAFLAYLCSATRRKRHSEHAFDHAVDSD
In short: as §1

human NTPDase8 [4] = molecular target: T2, human NTPDase8; assay: Malachite green assay, human NTPDase8; format: biochemical; settings: 2 μM compound; 100 µM ATP; COS-7 membrane preparation; read-out: % inhibition at 2 μM concentration, NTPDase8
In short: as §1

rat NTPDase1 = settings: cited from earlier work; for IC50: rat enzyme, ref Baqi et al., 2009b
rat NTPDase2 = settings: cited from earlier work; for IC50: rat enzyme, ref Baqi et al., 2009b
rat NTPDase3 = settings: cited from earlier work; for IC50: rat enzyme, ref Baqi et al., 2009b
rat CD73 = test system: rat CD73; set-up: method as in Baqi et al., 2010; settings: 1 mM concentration; ref Baqi et al., 2010; cited from earlier work

inhibition at 2 µM (human NTPDase1) [%]	inhibition at 2 µM (human NTPDase2 [3]) [%]	inhibition at 2 µM (human NTPDase3) [%]	inhibition at 2 µM (human NTPDase8 [4]) [%]	IC50 (human NTPDase2 [3]) [µM]	melting point [°C]	Compound	other results
						CCCCSc1nc2c(N)ncnc2n1[C@@H]1O[C@H](COP(=O)(O)OP(=O)(O)OP(=O)(O)O)[C@@H](O)[C@H]1O [8-BuS-ATP]	Ki (NTPDase1): 0.8 µM
						CCN(CC)c1ncnc2c1ncn2[C@@H]1O[C@H](COP(=O)(O)OP(=O)(O)C(Br)(Br)P(=O)(O)O)[C@@H](O)[C@H]1O [ARL67156]	inhibition of human NTPDase2 (in words) (human NTPDase2 [1]): does not inhibit; inhibition of human NTPDase8 (in words) (human NTPDase8 [2]): does not inhibit
-4	22	1	-21			Cc1cccc(Nc2cc(S(=O)(=O)O)c(N)c3c2C(=O)c2ccccc2C3=O)c1 [Compound 6, reference compound]	IC50 (rat NTPDase1): 51.5 µM; IC50 (rat NTPDase2): 12.8 µM; IC50 (rat NTPDase3): 19.1 µM
52		42	21	1.08 ± 0.08	> 300	Nc1c(S(=O)(=O)[O-])cc(Nc2ccc(Sc3ccc(Cl)cc3)cc2)c2c1C(=O)c1ccccc1C2=O.[Na+] [Compound 45, Sodium 1-amino-4-[4-(4-chlorophenylthio)phenylamino]-9,10-dioxo-9,10-dihydroanthracene-2-sulfonate]	
34		16	4	0.951 ± 0.225	> 300	COc1ccc(Sc2ccc(Nc3cc(S(=O)(=O)[O-])c(N)c4c3C(=O)c3ccccc3C4=O)cc2)cc1.[Na+] [Compound 47, Sodium 1-amino-4-[4-(4-methoxyphenylthio)phenylamino]-9,10-dioxo-9,10-dihydroanthracene-2-sulfonate]	
-4	5	-2	-4		229 to 230	CCc1cccc(Nc2cc(Br)c(N)c3c2C(=O)c2ccccc2C3=O)c1 [Compound 53, 1-Amino-2-bromo-4-(3-ethylphenylamino)anthracene-9,10-dione]	
14	-6	9	-1		> 300	O=C1c2ccccc2C(=O)c2c(Nc3cccc(F)c3)cc(S(=O)(=O)O)cc21 [Compound 57, 4-(3-Fluorophenylamino)-9,10-dioxo-9,10-dihydroanthracene-2-sulfonic acid]	
						[TiW11CoO40]^8- [Compound 9, reference compound]	inhibition of rat NTPDase1 (concentration range in words) (rat NTPDase1; ref Müller et al., 2006): submicromolar concentration range; inhibition of rat NTPDase2 (concentration range in words) (rat NTPDase2; ref Müller et al., 2006): submicromolar concentration range; inhibition of rat NTPDase3 (concentration range in words) (rat NTPDase3; ref Müller et al., 2006): submicromolar concentration range

Compound	inhibition at 2 µM (human NTPDase1) [%]	inhibition at 2 µM (human NTPDase2 [3]) [%]	inhibition at 2 µM (human NTPDase3) [%]	inhibition at 2 µM (human NTPDase8 [4]) [%]	IC50 (human NTPDase2 [3]) [µM]	melting point [°C]	other results
Nc1c(S(=O)(=O)O)cc(Nc2ccc3ccccc3c2)c2c1C(=O)c1ccccc1C2=O [Compound 18]	-8	34	-9	3			IC50 (rat NTPDase1): 0.328 µM; IC50 (rat NTPDase2): 19.1 µM; IC50 (rat NTPDase3): 2.22 µM
Nc1c(S(=O)(=O)O)cc(Nc2cc3ccccc3c3ccccc23)c2c1C(=O)c1ccccc1C2=O [Compound 20, 1-amino-4-(9-phenanthrylamino)-9,10-dioxo-9,10-dihydroanthracene-2-sulfonate]	-7		-5	6	0.539 ± 0.29		inhibition type, NTPDase2 (human NTPDase2 [3]; Hanes-Woolf plot, 25-200 µM ATP, inhibitor 0, 0.25, 0.5, 1 µM): non-competitive; % inhibition of CD73 at 1 mM concentration (rat CD73): 58%
